In this assay the target is T1, human IL-17AA (Homo sapiens, UniProt Q16552).
T1 construct: host or cells: HEK (human embryonic kidney) cells
T1 sequence (Q16552 24-155): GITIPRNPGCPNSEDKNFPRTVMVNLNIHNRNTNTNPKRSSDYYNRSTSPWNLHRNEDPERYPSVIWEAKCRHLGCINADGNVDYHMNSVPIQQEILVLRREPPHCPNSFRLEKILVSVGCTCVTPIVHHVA
The assay is described as follows: IL-8 release assay in human epithelial keratinocytes adult (HEKa). Conditions: HEKa cells, 3 ng/mL HEK-human IL-17AA + 10 ng/mL human TNFalpha; read-out: Rel EC50 IL-8 release assay. In kind it is cell-based. The method in brief:
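Adult human epidermal keratinocytes stimulated 68-72 h at 37 °C with 3 ng/mL HEK-derived human IL-17AA plus 10 ng/mL TNF-alpha (final) in the presence of compound; TNF-alpha alone defines 100% inhibition. Secreted IL-8 measured by HTRF as percent of controls; relative IC50/Emax from four-parameter fit (r^2>0.9), cytotoxicity by PrestoBlue.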

As usually defined, the EC50 is the midpoint of the concentration-response curve.

Consider `CC(C)c1ncn(C)c1-c1ccc(NC(=O)[C@@H](NC(=O)c2ccnn2C(C)C)C(C2CC2)C2CC2)cc1` [Example 401, N-[(1S)-1-(dicyclopropylmethyl)-2-[4-(5-isopropyl-3-methyl-imidazol-4-yl)anilino]-2-oxo-ethyl]-2-isopropyl-pyrazole-3-carboxamide], for which the EC50 was in the range of 100 to 1000 nM.

As for `CCC(CC)[C@H](NC(=O)c1ccnn1C)C(=O)Nc1ccc(-c2c(C)n[nH]c2C)cc1` [Example 118], the EC50 lay within 100 to 1000 nM.

As to `Cc1n[nH]c(C)c1-c1ccc(NC(=O)[C@@H](NC(=O)c2ncnn2C(C)C)C(C2CC2)C2CC2)cc1` [Example 162, N-[(1S)-1-(dicyclopropylmethyl)-2-[4-(3,5-dimethyl-1H-pyrazol-4-yl)anilino]-2-oxo-ethyl]-2-isopropyl-1,2,4-triazole-3-carboxamide], the EC50 was 100 to 1000 nM.

Consider `Cc1n[nH]c(C)c1-c1ccc(NC(=O)[C@@H](NC(=O)c2ccnn2C)C(C)C2CCC2)cc1` (single isomer, unassigned) [Example 194], for which the EC50 is below 100 nM.

As for `Cc1n[nH]c(C)c1-c1ccc(NC(=O)[C@@H](NC(=O)c2ccnn2CCCO)C(C2CC2)C2CC2)cc1` [Example 102, N-[(1S)-1-(dicyclopropylmethyl)-2-[4-(3,5-dimethyl-1H-pyrazol-4-yl)anilino]-2-oxo-ethyl]-2-(3-hydroxypropyl)pyrazole-3-carboxamide], the EC50 is below 100 nM.

Regarding `Cc1cnn(C)c1-c1ccc(NC(=O)[C@@H](NC(=O)c2ccnn2C(C)C)C(C2CC2)C2CC2)cc1O` [Example 365, N-[(1S)-1-(dicyclopropylmethyl)-2-[4-(2,4-dimethylpyrazol-3-yl)-3-hydroxy-anilino]-2-oxo-ethyl]-2-isopropyl-pyrazole-3-carboxamide], the EC50 was below 100 nM.

For the molecule `Cc1n[nH]c(C)c1-c1ccc(NC(=O)[C@@H](NC(=O)c2cnnn2-c2ccccc2)C2CCCCCC2)cc1` [Example 63, N-[(1S)-1-cycloheptyl-2-[4-(3,5-dimethyl-1H-pyrazol-4-yl)anilino]-2-oxo-ethyl]-3-phenyl-triazole-4-carboxamide], the EC50 was below 100 nM.

For the molecule `CCn1nccc1C(=O)N[C@H](C(=O)Nc1ccc(-c2c(C)cnn2C)c(O)c1)C(C1CC1)C1CC1` [Example 364, N-[(1S)-1-(dicyclopropylmethyl)-2-[4-(2,4-dimethylpyrazol-3-yl)-3-hydroxy-anilino]-2-oxo-ethyl]-2-ethyl-pyrazole-3-carboxamide], the half-maximal effective concentration (EC50) was below 100 nM.

With `CC(C)n1nccc1C(=O)N[C@H](C(=O)Nc1ccc(-c2[nH]cnc2C2CC2)cc1)C(C1CC1)C1CC1` [Example 381, N-[(1S)-2,2-dicyclopropyl-1-[[4-(4-cyclopropyl-1H-imidazol-5-yl)phenyl]carbamoyl]ethyl]-2-isopropyl-pyrazole-3-carboxamide], the EC50 lay within 100 to 1000 nM.

With `CCC(C1CCCCC1)C(NC(=O)c1ccnn1C)C(=O)Nc1ccc(-c2c(C)n[nH]c2C)cc1` (single isomer, unassigned) [Example 257], the EC50 is below 100 nM.

On to `Cc1[nH]nc(C(C)(C)O)c1-c1ccc(NC(=O)[C@@H](NC(=O)OC(C)(C)C)C2CCCCC2)cc1` [Example 436, tert-butyl N-[(1S)-1-cyclohexyl-2-[4-[5-(1-hydroxy-1-methyl-ethyl)-3-methyl-1H-pyrazol-4-yl]anilino]-2-oxo-ethyl]carbamate], for which the EC50 is above 1000 nM.

On to `Cc1n[nH]c(C)c1-c1ccc(NC(=O)[C@@H](NC(=O)c2ccnn2C)[C@H]2CC[C@H](C)CC2)cc1` [Example 125, Trans N-[(1S)-2-[4-(3,5-dimethyl-1H-pyrazol-4-yl)anilino]-1-(4-methylcyclohexyl)-2-oxo-ethyl]-2-methyl-pyrazole-3-carboxamide], for which the EC50 is below 100 nM.

As to `Cc1n[nH]c(C)c1-c1ccc(NC(=O)[C@@H](NC(=O)c2ccnn2C)C2C3CC4CC(C3)CC2C4)cc1` (stereo partly drawn) [Example 202, N-[(1S)-1-(2-adamantyl)-2-[4-(3,5-dimethyl-1H-pyrazol-4-yl)anilino]-2-oxo-ethyl]-2-methyl-pyrazole-3-carboxamide], the EC50 was below 100 nM.

Take `Cc1n[nH]c(C)c1-c1ccc(NC(=O)[C@@H](NC(=O)c2ccnn2C(C)C(F)F)C(C2CC2)C2CC2)cc1` (stereo partly drawn) [Example 189, N-[(1S)-1-(dicyclopropylmethyl)-2-[4-(3,5-dimethyl-1H-pyrazol-4-yl)anilino]-2-oxo-ethyl]-2-(2,2-difluoro-1-methyl-ethyl)pyrazole-3-carboxamide]: the EC50 is below 100 nM.

For the molecule `Cc1n[nH]c(C)c1-c1ccc(NC(=O)C(NC(=O)c2ccnn2C(C)C)C(C2CC(F)(F)C2)C2CC(F)(F)C2)cc1` (racemic) [Example 294, N-[1-[bis(3,3-difluorocyclobutyl)methyl]-2-[4-(3,5-dimethyl-1H-pyrazol-4-yl)anilino]-2-oxo-ethyl]-2-isopropyl-pyrazole-3-carboxamide], the EC50 was in the range of 100 to 1000 nM.

For the molecule `CCn1nccc1C(=O)N[C@@H](CC1CCCCC1)C(=O)Nc1ccc(-c2c(C)n[nH]c2C)cc1` [Example 16, N-[(1S)-1-(cyclohexylmethyl)-2-[4-(3,5-dimethyl-1H-pyrazol-4-yl)anilino]-2-oxo-ethyl]-2-ethyl-pyrazole-3-carboxamide], the EC50 fell in the range of 100 to 1000 nM.

On to `Cc1n[nH]c(C)c1-c1ccc(NC(=O)[C@@H](NC(=O)c2ccccc2)C(C2CC2)C2CC2)cc1` [Example 167, N-[(1S)-1-(dicyclopropylmethyl)-2-[4-(3,5-dimethyl-1H-pyrazol-4-yl)anilino]-2-oxo-ethyl]benzamide], for which the EC50 was in the range of 100 to 1000 nM.

Consider `CC[C@H](C)[C@H](NC(=O)c1ccnn1C(C)C)C(=O)Nc1ccc(-c2c(C)n[nH]c2C)cc1` [Example 110], for which the EC50 was in the range of 100 to 1000 nM.

`Cc1n[nH]c(C)c1-c1ccc(NC(=O)[C@@H](NC(=O)c2ccnn2C2CC2)C(C2CC2)C2CC2)cc1` [Example 116, 2-cyclopropyl-N-[(1S)-1-(dicyclopropylmethyl)-2-[4-(3,5-dimethyl-1H-pyrazol-4-yl)anilino]-2-oxo-ethyl]pyrazole-3-carboxamide]: the EC50 is below 100 nM.

In the case of `Cc1n[nH]c(C)c1-c1ccc(NC(=O)[C@H](Cc2ccc(O)cc2)NC(=O)c2ccnn2C)cc1` [Example 45, N-[(1S)-2-[4-(3,5-dimethyl-1H-pyrazol-4-yl)anilino]-1-[(4-hydroxyphenyl)methyl]-2-oxo-ethyl]-2-methyl-pyrazole-3-carboxamide], the EC50 is above 1000 nM.

With `Cn1cncc1-c1ccc(NC(=O)[C@@H](NC(=O)c2ccnn2C)C(C2CCCCC2)C2CCCC2)cc1` (single isomer, unassigned) [Example 339B], the EC50 is 100 to 1000 nM.

With `Cc1n[nH]c(C)c1-c1ccc(NC(=O)[C@@H](NC(=O)c2cnnn2C(C)C)C2CCCCC2)cc1` [Example 75, N-[(1S)-1-cyclohexyl-2-[4-(3,5-dimethyl-1H-pyrazol-4-yl)anilino]-2-oxo-ethyl]-3-isopropyl-triazole-4-carboxamide], the EC50 fell in the range of 100 to 1000 nM.

As for `Cc1n[nH]c(C)c1-c1ccc(NC(=O)[C@@H](NC(=O)c2ccnn2CCO)C2CCCCC2)cc1` [Example 46, N-[(1S)-1-cyclohexyl-2-[4-(3,5-dimethyl-1H-pyrazol-4-yl)anilino]-2-oxo-ethyl]-2-(2-hydroxyethyl)pyrazole-3-carboxamide], the EC50 lay in the range of 100 to 1000 nM.

In the case of `CCn1nccc1C(=O)N[C@H](C(=O)Nc1ccc(-n2cnc(C)c2C)cc1)C(C1CC1)C1CC1` [Example 369, N-[(1S)-1-(dicyclopropylmethyl)-2-[4-(4,5-dimethylimidazol-1-yl)anilino]-2-oxo-ethyl]-2-ethyl-pyrazole-3-carboxamide], the EC50 is 100 to 1000 nM.

With `Cc1n[nH]c(C)c1-c1ccc(NC(=O)[C@@H](NC(=O)N(C)C(C)C)C2CCCCC2)cc1` [Example 469, (2S)-2-cyclohexyl-N-[4-(3,5-dimethyl-1H-pyrazol-4-yl)phenyl]-2-[[isopropyl(methyl)carbamoyl]amino]acetamide], the EC50 lay within 100 to 1000 nM.

In the case of `Cc1n[nH]cc1-c1ccc(NC(=O)[C@@H](NC(=O)c2ccnn2C)C(c2ccccc2)c2ccccc2)cc1O` [Example 421, N-[(1S)-1-Benzhydryl-2-[3-hydroxy-4-(3-methyl-1H-pyrazol-4-yl)anilino]-2-oxo-ethyl]-2-methyl-pyrazole-3-carboxamide], the EC50 is 100 to 1000 nM.

In the case of `Cc1n[nH]c(C)c1-c1ccc(NC(=O)[C@@H](NC(=O)c2ccnn2CC(C)(F)F)C(C2CC2)C2CC2)cc1` [Example 186, N-[(1S)-1-(dicyclopropylmethyl)-2-[4-(3,5-dimethyl-1H-pyrazol-4-yl)anilino]-2-oxo-ethyl]-2-(2,2-difluoropropyl)pyrazole-3-carboxamide], the EC50 was below 100 nM.

With `Cc1n[nH]c(C)c1-c1ccc(NC(=O)[C@@H](NC(=O)c2ccnn2C)[C@H]2CCOc3ccccc32)cc1` [Example 34, N-[(1S)-1-[(4S)-chroman-4-yl]-2-[4-(3,5-dimethyl-1H-pyrazol-4-yl)anilino]-2-oxo-ethyl]-2-methyl-pyrazole-3-carboxamide], the EC50 was 100 to 1000 nM.

As to `Cc1n[nH]c(C(C)O)c1-c1ccc(NC(=O)[C@@H](NC(=O)c2ccnn2C)C(c2ccccc2)c2ccccc2)cc1` (stereo partly drawn) [Example 443, N-[(1S)-1-benzhydryl-2-[4-[5-(1-hydroxyethyl)-3-methyl-1H-pyrazol-4-yl]anilino]-2-oxo-ethyl]-2-methyl-pyrazole-3-carboxamide], the EC50 was 100 to 1000 nM.

In the case of `CCc1nocc1C(=O)N[C@H](C(=O)Nc1ccc(-c2c(C)n[nH]c2C)cc1)C1CCCCC1` [Example 276, N-[(1S)-1-cyclohexyl-2-[4-(3,5-dimethyl-1H-pyrazol-4-yl)anilino]-2-oxo-ethyl]-3-ethyl-isoxazole-4-carboxamide], the EC50 was below 100 nM.
